Experiments:
HCVpp = HCVpp infection/entry, primary human hepatocytes (PHHs), with cell viability; assay type: cell-based, Hepatitis C virus
PHB-CRaf interaction = PHB-CRaf interaction (Homo sapiens (Human), UniProt P35232+Q99623); test: Co-IP of Flag-CRaf and V5-tagged PHB1 & 2 in 293T cells; assay type: cell-based; conditions: 20 nM
Procedure: (§1) (A) PHHs seeded in a 48-well plate were treated with Roc-A or DMSO and then infected by HCVpp. EC50and CC50 (50% cytotoxicity dose) were calculated based on the fitted Sigmoid curves. (B) Huh7.5.1 cells were treated with Roc-A (20 nM) or DMSO for 1, 2, and 3 days. Cellular PHB1, PHB2, CRaf, and Ras were detected by Western blotting. Numbers shown below Western blot gel images indicate the relative protein levels quantified by Odyssey imaging system (LI-COR Biosciences). (C-D) Flag-CRaf (F-CRaf) and V5-tagged PHB1 & 2 were co-transfected into 293T cells and then left untreated or treated with Roc-A (20 nM) before immunoprecipitation with anti-Flag antibody. The pulled-down PHB1 & 2 as well as CRaf were detected by immunoblotting. (E) Different inhibitory profiles of the (+)- and(−)-Roc-A enantiomers on HCVcc infection. (F) A CMV-luciferase reporter construct was transfected into Huh7.5.1 cells. 24 h post-transfection each compound was added to the cells for 3 h at 2 μM. After removal of the compound, the cells were further incubated for 24 h followed by luciferase assay. […] HCVcc-Luc was added to Huh7.5.1 cells at 37° C. and incubated for 3 h. At the indicated time points, 2μM of each compound or DMSO was added into the media and incubated for 3 h prior to removal. Infected cells were incubated at 37° C. for an additional 48 h prior to luciferase assay (mean of n=3; error bars, s.d.).

[1] = tested on: HCV RNA replication or protein translation; test: HCV RNA replication or protein translation; assay type: cell-based, Hepatitis C virus; conditions: 20 nM
[2] = tested on: JFH-1 genotype 2a infectious virus (HCVcc); test: HCV (HCVcc) infection / viral entry inhibition on Huh7.5.1 cells; assay type: cell-based, Hepatitis C virus; conditions: for inhibition on HCV entry (enantiomer comparison): HCVcc infection; for EC50: Hepatitis C virus
Procedure: as §1
(§2) In a preferred embodiment, Y is C, R1, R3, and R4 from the structure 5 is —OCH3, and R2 and R5 is hydrogen, which is aglaroxin C. […] The term EC50 refers to the concentration of a drug or antibody which induces a response halfway between the baseline and maximum after a specified exposure time. It is commonly used as a measure of drug's potency. The 50% cytotoxic concentration (CC50) is defined as the quantity of a toxicant generating 50% of cell viability, compared to the control. The values of the percentages of cell viability were plotted against toxicant concentrations, and CC50 is determined. (TI) is a comparison of the amount of a therapeutic agent that causes the therapeutic effect to the amount that causes toxicity.

CHIKVpp = CHIKVpp infection of Huh7.5.1 cells; assay type: cell-based, chikungunya virus; conditions: low nanomolar concentrations
Procedure: FIGS. 4A and 4B illustrate that PHBs are required for CHIKVpp entry. (A) Huh7.5.1 were transfected with indicated siRNA, followed by infection of CHIKVpp (mean±SD, *p<0.05). (B) Huh 7.5.1 cells were treated with DMSO or Roc-A (10 nM) and then infected by CHIKVpp for luciferase assay (mean±SD, *p<0.05).

DENV2 = DENV2 infection of Huh7.5.1 cells; assay type: cell-based, dengue virus
Procedure: Huh7.5.1 cells were treated by DMSO, Roc-A (5nM) or Roc-A (10nM) for 10 hours prior to infection by DENV2 (MOI 0.1 and 1). 36 hours post-infection, cells were fixed in methanol and immunostained for DENV prM/E (red).

PHB1 and PHB2 = PHB1 and PHB2 (Homo sapiens (Human), UniProt P35232+Q99623); test: Cell surface biotinylation assay; assay type: cell-based; conditions: 20 nM, Huh7.5.1 cells
[3] = target: PHB1, PHB2, CRaf, and Ras (Homo sapiens (Human), UniProt P35232+Q99623); test: Western blot of total cellular protein levels in Huh7.5.1 cells; assay type: cell-based; conditions: 20 nM, 1, 2, and 3 days
Procedure: as §1

[4] = human liver microsomal stability assay
[5] = Cytotoxicity (CC50) on Huh7.5.1 cells; assay type: cell-based; conditions: human; for CC50 at 3 h: compounds incubated with cells for a total of 3 h on Huh7.5.1 cells; for CC50 at 48 h: compounds incubated with cells for a total of 48 h on Huh7.5.1 cells
Source text: as §2

[6] = tested on: protein translation (luciferase reporter gene); test: Translation inhibition, CMV-luciferase reporter transfected into Huh7.5.1 cells; assay type: cell-based, human; conditions: compound added for 3 h, luciferase reporter in Huh7.5.1 cells
Procedure: as §1

HCVcc-Luc = test: Time-of-addition experiment, HCVcc-Luc on Huh7.5.1 cells; assay type: cell-based, Hepatitis C virus; conditions: 2 μM
Procedure: as §1

[7] = 3 h incubation on Huh7.5.1 cells
[8] = 48 h incubation on Huh7.5.1 cells

Sequence of PHB-CRaf interaction (P35232 whole entry): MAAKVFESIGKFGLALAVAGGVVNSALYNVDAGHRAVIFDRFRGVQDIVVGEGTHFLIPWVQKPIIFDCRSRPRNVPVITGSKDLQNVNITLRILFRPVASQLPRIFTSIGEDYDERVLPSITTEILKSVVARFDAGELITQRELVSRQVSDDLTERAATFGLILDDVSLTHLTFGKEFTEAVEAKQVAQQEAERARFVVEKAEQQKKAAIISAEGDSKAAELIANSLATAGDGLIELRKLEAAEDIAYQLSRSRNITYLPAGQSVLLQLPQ
Sequence of PHB-CRaf interaction (Q99623 whole entry): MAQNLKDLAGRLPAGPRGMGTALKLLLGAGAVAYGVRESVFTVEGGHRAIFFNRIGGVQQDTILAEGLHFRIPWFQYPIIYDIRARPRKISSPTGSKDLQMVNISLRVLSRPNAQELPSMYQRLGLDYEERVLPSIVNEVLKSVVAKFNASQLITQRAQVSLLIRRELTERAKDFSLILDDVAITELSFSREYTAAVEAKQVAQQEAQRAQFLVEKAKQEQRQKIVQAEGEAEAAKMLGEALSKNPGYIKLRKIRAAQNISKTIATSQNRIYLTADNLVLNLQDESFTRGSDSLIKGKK

Row | SMILES | CC50 at 3 h [5] | Translation inhibition at 2 μM [6] | TI (CC50/EC50) [2, 7] | inhibition on HCV entry (enantiomer comparison) [2] | EC50 ([2]; Huh-7.5.1, 3 h) | CC50 at 48 h [5] | TI (CC50/EC50) [2, 8] | EC50 ([2]; Huh-7.5.1, 48 h) | other results
1 | COc1ccc([C@@]23Oc4cc(OC)cc(OC)c4[C@]2(O)[C@H](O)[C@H](C(=O)N(C)C)[C@H]3c2ccccc2)cc1 [Roc-A, rocaglamide A] | – | – | – | – | – | – | – | – | HCVpp infection (HCVpp; low nanomolar concentrations): significantly reduced; HCVpp entry (HCVpp; pretreatment of PHHs at non-cytotoxic concentrations): suppressed; PHB-CRaf interaction in co-IP experiment (PHB-CRaf interaction): disrupted; inhibition of HCV RNA replication or protein translation [1]: did not inhibit; HCVcc infection ([2]; low nanomolar concentrations): significantly reduced; CHIKVpp infection (CHIKVpp): significantly reduced; DENV2 infection (DENV2; 5 nM or 10 nM for 10 hours prior to infection, MOI 0.1 and 1, Huh7.5.1 cells): reduced; dengue virus infection (DENV2; low nanomolar concentrations): significantly reduced; cell surface expression of PHB1 and 2 (PHB1 and PHB2): decreased; PHB1, 2, Ras, and CRaf at the total protein level [3]: decreased; half-life [4]: 37 min
2 | COc1ccc([C@@]23Oc4cc(OC)cc(OC)c4[C@]2(O)c2nc4n(c(=O)c2[C@H]3c2ccccc2)CCC4)cc1 [(−)-aglaroxin C] | 12000 nM | No | 60^1 | active enantiomer | 200 nM | – | – | – | –
3 | COc1ccc([C@@]23Oc4cc(OC)cc(OC)c4[C@]2(O)c2nc4n(c(=O)c2[C@H]3c2ccccc2)CCC4)cc1 (racemic) [(±) aglaroxin C (C10), aglaroxin C] | 10000 nM | No | 100 | – | 100 nM | 20 nM | 500 | 0.04 nM | Translation inhibition at 2 μM ([6]; listed as chiral, racemic aglaroxin C): did not inhibit; half-maximum effective concentrations (EC50) ([2]; JFH-1 genotype 2a infectious virus in cell culture): picomolar; anti-HCV activity (HCVcc-Luc; added about 3 h after the infection was initiated): lost its activity; anti-HCV activity (HCVcc-Luc; added together with the virus): inhibited HCV infection when added together with the virus; anti-HCV activity (HCVcc-Luc; added together with the virus, listed as chiral, racemic aglaroxin C): maximal anti-HCV activity
4 | COc1ccc([C@@]23Oc4cc(OC)cc(OC)c4[C@]2(O)[C@H](O)[C@H](C(=O)N(C)C)[C@H]3c2ccccc2)cc1 [(−) Roc-A] | 50000 nM | No | 50 | stronger inhibition on HCV entry than the (+) enantiomer | 1000 nM | 300 nM | 75 | 4 nM | –
5 | COc1ccc([C@]23Oc4cc(OC)cc(OC)c4[C@@]2(O)c2nc4n(c(=O)c2[C@@H]3c2ccccc2)CCC4)cc1 [(+)-aglaroxin C] | 100000 nM | No | 5^1 | – | 20000 nM | – | – | – | –
6 | COc1ccc([C@]23Oc4cc(OC)cc(OC)c4[C@@]2(O)[C@@H](O)[C@@H](C(=O)N(C)C)[C@@H]3c2ccccc2)cc1 [(+) Roc-A] | 300000 nM | No | – | – | > 200000 nM | – | – | – | –

Reference: patent US10085988B1, “Aglaroxin C and derivatives as HCV entry inhibitors” (SRI International, priority 2015, dated 2018)
